This note sets out measurements from patent US20260271987A1, “AEROSOL PRECURSOR COMPOSITION COMPRISING MONOMENTHYL ESTER” (RAI STRATEGIC HOLDINGS, INC., priority 2023, published 2026).

The nature of the data set: Thermal analysis (flash pyrolysis and thermogravimetric analysis) of neat menthyl monosuccinate. The format is physicochemical. Conditions: for Compounds volatilized by FP and TGA, Area %: neat menthyl monosuccinate sample, FP in helium, Teq=340° C., 40 seconds, GC/MS, TGA 30 to 340° C. at 20 degrees per minute. As to the method:
Flash pyrolysis (FP) and thermogravimetric analysis (TGA) were conducted on a sample of menthyl monosuccinate.
For the FP, a pyroprobe Model 5200 (CDS Analytical, CDS, Oxford, PA 19363, USA) pyrolyzer was used. Heating was performed in helium in flash mode with Teq=340° C. using approximately 0.5 mg of neat monomenthyl succinate. Heating was performed for 40 seconds. GC/MS analysis was performed with separation on a DB-1701 column. For the TG, a Discovery TA 5500 (TA Instruments, New Castle, DE, USA) was used. The temperature range was 30 to 340° C. at a ramp rate of 20 degrees per minute. Neat monomenthyl succinate (2-3 mg) and silica (about 1.5 mg, containing 5% naphthalene) was used as an internal standard.

SMILES strings stand for the structures.

On to `CC(C)[C@@H]1CC[C@@H](C)C[C@H]1OC(=O)CCC(=O)O` [Menthyl monosuccinate], for which the “Compounds volatilized by FP and TGA, Area %” value is 70%. Further, the “portion of the menthyl monosuccinate volatilized without decomposition” value (FP and TGA, up to 340° C.) is 70%.
Turning to `CC(C)[C@@H]1CC[C@@H](C)C[C@H]1O` [Menthol, (1R,2S,5R)-5-Methyl-2-(propan-2-yl)cyclohexan-1-ol], the “Compounds volatilized by FP and TGA, Area %” value was determined as 16.5%. Where the note is “FP and TGA, up to 340° C.”, the “major decomposition product formed from menthyl monosuccinate” value was 16.5%.
